The record followed here is ChEMBL document CHEMBL2073972, “Contribution of OATP2 (OATP1B1) and OATP8 (OATP1B3) to the hepatic uptake of pitavastatin in humans” (J Pharmacol Exp Ther, 2004).

For data set [1], the target named is T1, Solute carrier organic anion transporter family member 1B1 (Homo sapiens, UniProt Q9Y6L6).
T1 sequence (Q9Y6L6 whole entry): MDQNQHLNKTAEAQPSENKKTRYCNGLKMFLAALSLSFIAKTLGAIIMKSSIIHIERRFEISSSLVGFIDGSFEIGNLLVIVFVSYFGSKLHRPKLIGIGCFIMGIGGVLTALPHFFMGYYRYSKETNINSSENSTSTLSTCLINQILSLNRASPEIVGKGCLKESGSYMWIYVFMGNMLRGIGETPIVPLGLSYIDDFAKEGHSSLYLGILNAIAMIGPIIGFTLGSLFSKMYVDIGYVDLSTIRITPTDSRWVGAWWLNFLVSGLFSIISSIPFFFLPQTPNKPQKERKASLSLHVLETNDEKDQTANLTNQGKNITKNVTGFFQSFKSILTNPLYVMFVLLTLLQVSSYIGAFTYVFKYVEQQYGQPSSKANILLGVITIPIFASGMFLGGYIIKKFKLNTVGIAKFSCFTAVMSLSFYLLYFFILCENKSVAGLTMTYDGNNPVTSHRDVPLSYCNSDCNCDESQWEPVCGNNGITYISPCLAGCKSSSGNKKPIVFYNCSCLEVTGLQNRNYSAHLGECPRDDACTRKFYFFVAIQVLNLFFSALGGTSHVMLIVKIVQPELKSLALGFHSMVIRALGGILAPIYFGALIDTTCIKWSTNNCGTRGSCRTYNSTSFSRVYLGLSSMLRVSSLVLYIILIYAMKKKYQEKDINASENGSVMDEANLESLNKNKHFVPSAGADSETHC
As to the kind of experiment: TP_TRANSPORTER: cell accumulation in OATP2-expressing HEK293 cells. In kind it is functional, cell-based.

In data set [2] the target is T2, Solute carrier organic anion transporter family member 1B3 (Homo sapiens, UniProt Q9NPD5).
T2 sequence (Q9NPD5 whole entry): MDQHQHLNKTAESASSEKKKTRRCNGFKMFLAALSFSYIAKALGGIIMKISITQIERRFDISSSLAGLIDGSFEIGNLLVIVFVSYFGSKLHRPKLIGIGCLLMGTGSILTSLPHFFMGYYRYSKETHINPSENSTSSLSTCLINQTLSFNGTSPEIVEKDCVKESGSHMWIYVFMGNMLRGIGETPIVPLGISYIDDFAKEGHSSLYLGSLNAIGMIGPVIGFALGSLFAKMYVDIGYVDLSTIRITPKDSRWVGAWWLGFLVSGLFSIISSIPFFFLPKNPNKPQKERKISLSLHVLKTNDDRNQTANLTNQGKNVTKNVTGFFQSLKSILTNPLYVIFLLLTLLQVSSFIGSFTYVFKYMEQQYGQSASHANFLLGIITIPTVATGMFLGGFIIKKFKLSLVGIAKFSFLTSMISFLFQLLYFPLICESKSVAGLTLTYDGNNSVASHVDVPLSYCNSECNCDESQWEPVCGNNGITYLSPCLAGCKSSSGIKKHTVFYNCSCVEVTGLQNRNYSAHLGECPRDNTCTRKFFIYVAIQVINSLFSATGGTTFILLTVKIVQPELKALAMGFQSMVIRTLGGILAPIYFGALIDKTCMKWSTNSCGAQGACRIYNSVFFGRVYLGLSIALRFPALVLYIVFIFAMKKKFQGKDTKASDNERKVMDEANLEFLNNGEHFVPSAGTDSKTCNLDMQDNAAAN
In words: TP_TRANSPORTER: cell accumulation in OATP8-expressing HEK293 cells. Format: functional, cell-based.

For the compound `C[C@]12CC[C@@H]3c4ccc(O)cc4CC[C@H]3[C@@H]1CC[C@@H]2O[C@@H]1O[C@H](C(=O)O)[C@@H](O)[C@H](O)[C@H]1O` [ESTRADIOL 17B GLUCURONIDE], the Activity result in data set [1] and in data set [2] was “substrate []” throughout.
Take `O=C(O)C[C@H](O)C[C@H](O)/C=C/c1c(C2CC2)nc2ccccc2c1-c1ccc(F)cc1` [PITAVASTATIN]: the Activity result in data set [1] and in data set [2] was “substrate []” each time.
For `CSCC[C@H](NC(=O)[C@H](Cc1ccc(OS(=O)(=O)O)cc1)NC(=O)[C@@H](N)CC(=O)O)C(=O)NCC(=O)N[C@@H](Cc1c[nH]c2ccccc12)C(=O)N[C@@H](CCSC)C(=O)N[C@@H](CC(=O)O)C(=O)N[C@@H](Cc1ccccc1)C(N)=O` [SINCALIDE], the Activity entry in data set [1] and in data set [2] was “substrate []” in each case.
As to `C[C@]12CC[C@@H]3c4ccc(OS(=O)(=O)O)cc4CC[C@H]3[C@@H]1CCC2=O` [ESTRONE SULFURIC ACID], the Activity result in data set [1] and in data set [2] was “substrate []” in each case.
